Data taken from paper PMC4197335, “Cancer-Selective Targeting of the NF-κB Survival Pathway with GADD45β/MKK7 Inhibitors” (Cancer Cell, 2014).
≈ marks a conversion by molar mass, not a printed value. Read-outs that look alike come from different tables or passages of the source.

Key:
[1] = thermodynamic solubility; type: physicochemical; conditions: in PBS, pH 7.4, for 14 days at 37 °C
Description: (§1) Pharmacophore Model Building
(§2) The pharmacophore predictive
(§3) Broad- Panel Kinase Profiling
(§4) according to in-house protocols therein.
(§5) Pharmacokinetic Anal yses
(§6) In vitro pharmacok inetic assays were […]

[2] = microsomal stability; type: in vitro ADME, human
Description: as §1, §2, §3, §4, §5, §6

[3] = subcutaneous U266 myeloma xenograft (plasmacytoma model); type: in vivo, mice; conditions: male, NOD/SCID (NOD.CB17-Prkdcscid/IcrCrl), mouse, plasma, sc; continual infusion 14.5 mg/kg/day; SEM, n=16; read-out: plasma concentration at the steady state
[4] = system: CD138+ cells from MM patients; assay: cells; conditions: read-out: IC50 (MM; PCs (n = 8)); at 48 hr; mean ± SEM
Description: (§7) Additional details are provided in Supplemental Experimental Procedures.
(§8) automated system (Becton Dick inson) and analyzed with FlowJo.

[5] = system: human BMSCs; assay: cells; conditions: read-out: IC50 (normal; BMSCs); at 48 hr
Description: as §7, §8

[6] = system: human mesenchymal stem cells (MSCs); assay: cells; conditions: read-out: IC50 (normal; MCSs); at 48 hr
Description: as §7, §8

[7] = system: CD138+ cells from WM patients; assay: cells; conditions: read-out: IC50 (WM; PCs (n= 2)); at 48 hr; mean ± SEM
Description: as §7, §8

[8] = system: human PBMCs; assay: cells; conditions: read-out: IC50 (normal; PBMCs); at 48 hr
Description: as §7, §8

[9] = system: mouse lymph node (LN) cells; assay: cells; conditions: read-out: IC50 (normal; lymph node cells); at 48 hr
Description: as §7, §8

[10] = system: mouse splenocytes; assay: cells; conditions: read-out: IC50 (normal; splenocytes); at 48 hr
Description: as §7, §8

[11] = tolerability in mice
Description: Table S6, related to Figure 7. Summary of the pharmacokinetic profiles of DTP3 and z-DTP2
PK Param enters Values Drug
Values denote means ± SD (n=3) or SEM (n=5), as indicated. MW , molecular

[12] = pharmacokinetics after single intravenous injection
Protocol: The pharmacokinetic analyses of DTP3 and z-DTP2 were outsourced. Additional details are provided in Supplemental Experimental Procedures. […]
as §5
In vitro and in vivo pharmacok inetic analyses were outsourced to Cypr ot ex (http://www.c yprotex.com/home/) (Figure 7A, Tables S6). In vitro pharmacok inetic assays were perf ormed according to established, in- house protocols and included: plasma stability (human), thermodynamic solubility (PBS pH 7.4, at 37 °C f or 14 days), microsomal stability (human), plasma protein binding (PPB; mouse and human), and distribution coeff icient (LogD). In vivo pharmacok inetic […]
analyses were also perf ormed at Cyprotex according to established, in- house protocols. Brief ly, the peptides were dissolved in PBS and administered by single intravenous injection t o CD1 male mice at the dose of 10 mg/kg (25 -30 g of total body weight; n=3 mice per time point per compound) . Blood samples were collected in heparinized tubes at up to 7 tim e points after this injection (i.e. 0.08, 0.25, 0.5, 1, 2, 4 and 8 hr), and the plasma concentrations of the test peptide were determined at each time point by LC-MS/ MS, using a f ive- point standard curve covering a peptide concentration range from 3 to 3,000 ng/mL. Standard curves were prepared using blank plasma matrices and treated in the same manner as the test samples. The main pharmacok inetic parameters determined in these analyses were: terminal half-lif e (t 1/2 ), plasma clearance (CL), volume of distribution (V d ), and area under the plasma concentration versus time curve (AUC) (Figure 7A, Table S6). Values were calculated from the data of the peptide plasma concentration versus time curves using a non-compartmental model analysis, as described elsewhere (Groulx, 2006; Landaw and Di Stef ano 3rd, 1982) . […]

[13] = plasma protein binding; type: in vitro ADME; conditions: read-out: PPB (fraction unbound)
Description: as §1, §2, §3, §4, §5, §6

[14] = distribution coefficient (LogD); type: physicochemical
Description: as §1, §2, §3, §4, §5, §6

In the case of `CC(=O)N[C@H](Cc1ccc(O)cc1)C(=O)N[C@H](CCCNC(=N)N)C(=O)N[C@H](Cc1ccccc1)C(N)=O` [DTP3, Ac-YRF-NH2], the solubility thermodynamic [1] is reported as 169 ± 7.53 mg/mL (≈ 322 mM), the “microsomal stability (human)” value [2] is reported as 4.87 ± 1.24 µL/min/mg protein and the half-life ([2]; human, microsomes, read-out: microsomal stability (human) t½) is reported as 4.75 h. For the same compound, the level at time molar [3] was 700 ± 90 nM, the IC50 [4] was 0.0282 ± 0.0001 µM and the IC50 [5] was over 100 µM. The IC50 [6] was over 100 µM, the IC50 [7] was over 10 µM and the IC50 [8] was over 100 µM. The IC50 [9] was over 100 µM, the IC50 [10] was over 100 µM and the “Toxicity - continual s.c. dosing (14.5 mg/kg/day for 28 days)” value ([11]; mice, osmotic pumps) was “no apparent toxicity”. For the same compound, the “Toxicity - single i.v. (10 mg/kg)” value ([11]; mouse, in vivo, iv, 10 mg/kg) was “no apparent toxicity”, the “Toxicity - oral (100 mg/kg)” value ([11]; mouse, in vivo, po, 100 mg/kg) was “no apparent toxicity” and the “Toxicity - single s.c. (10 mg/kg)” value ([11]; mouse, in vivo, sc, 10 mg/kg) was “no apparent toxicity”. The “predicted dose required to achieve the therapeutic plasma concentration of 1 μM at the steady state” value ([12]; k0 = k1 x Vd x Cp) was 0.81 mg/kg/h, the AUC ([12]; mouse, in vivo, iv, 10 mg/kg) was 6430 ± 10 ng·h/mL and the Vd ([12]; mouse, in vivo, iv, 10 mg/kg) was 2.8 ± 1.26 L/kg. The clearance ([12]; mouse, in vivo, iv, 10 mg/kg) was 27.1 ± 4.09 mL/min/kg, the half-life ([12]; mouse, in vivo, iv, 10 mg/kg) was 1.26 h and the fraction unbound ([13]; human) was 0.933 ± 0.004. For the same compound, the fraction unbound ([13]; mouse) was 0.42 ± 0.01 and the logD [14] was 1.19 ± 0.29.
